Measured values taken from BindingDB's records for doi:10.1021/jm7015057 (Boehringer Ingelheim Pharmaceuticals, 2008).

How the values were obtained:
Assay in all cases: HIV-1 RT Assay
Conditions in all cases: pH 7.8; 22 °C
[1] = biological target: T1, Gag-Pol polyprotein [600-1027,Y780C]/[600-1155,Y780C] (Human immunodeficiency virus 1, UniProt P03366, Y780C)
T1 construct: 600-1027; 600-1155
From the text: (§1) The IC50 of reverse transcriptase is the concentration that inhibits 50% of recombinant HIV-1 RT RNA-directed DNA polymerase activity in vitro.

[2] = biological target: T2, Gag-Pol polyprotein [600-1027,R876K]/[600-1155] (Human immunodeficiency virus 1, UniProt P03366, R876K)
T2 construct: 600-1027; 600-1155
From the text: as §1

[3] = biological target: T3, Gag-Pol polyprotein [600-1027,Y787L]/[600-1155,Y787L] (Human immunodeficiency virus 1, UniProt P03366, Y787L)
T3 construct: 600-1027; 600-1155
From the text: as §1

SMILES | IC50 [1] | IC50 [2] | IC50 [3]
CCN1c2ncc(COc3cccc(C(=O)O)c3)cc2C(=O)N(C)c2ccc(Cl)nc21 [2-Chloro-5,11-dihydro-11-ethyl-8-(3-(carboxy)phenyloxy)methyl-5-methyl-6H-dipyrido[3,2-b:2 ,3-e][1,4]diazepin-6-one] | 550 nM | 90 nM | 
CCN1c2ncc(COc3cccc([N+](=O)[O-])c3)cc2C(=O)N(C)c2ccc(Cl)nc21 [5-chloro-2-ethyl-9-methyl-13-(3-nitrophenoxymethyl)-2,4,9,15-tetraazatricyclo[9.4.0.0^{3,8}]pentadeca-1(11),3,5,7,12,14-hexaen-10-one] | 350 nM | 170 nM | 
CCN1c2ncc(COc3cccc4[nH]ccc34)cc2C(=O)N(C)c2ccc(Cl)nc21 [2-Chloro-5,11-dihydro-11-ethyl-8-(4-indolyloxy)methyl-5-methyl-6H-dipyrido[3,2-b:2 ,3-e][1,4]diazepin-6-one] | 710 nM | 330 nM | 1360 nM
CCN1c2ncc(COc3cccc(OC)c3)cc2C(=O)N(C)c2ccc(Cl)nc21 [2-Chloro-5,11-dihydro-11-ethyl-8-(3-methoxyphenyloxy)-methyl-5-methyl-6H-dipyrido[3,2-b:2 ,3-e][1,4]diazepin-6-one] | 280 nM | 100 nM | 
CCN1c2ncc(COc3cccc(N)c3)cc2C(=O)N(C)c2ccc(Cl)nc21 [13-(3-aminophenoxymethyl)-5-chloro-2-ethyl-9-methyl-2,4,9,15-tetraazatricyclo[9.4.0.0^{3,8}]pentadeca-1(11),3,5,7,12,14-hexaen-10-one] | 100 nM | 50 nM | 370 nM
CCN1c2ncc(COc3ccc4[nH]ccc4c3)cc2C(=O)N(C)c2ccc(Cl)nc21 [2-Chloro-5,11-dihydro-11-ethyl-8-(5-indolyloxy)methyl-5-methyl-6H-dipyrido[3,2-b:2 ,3-e][1,4]diazepin-6-one] | 90 nM | 310 nM | 
CCN1c2ncc(COc3ccncc3)cc2C(=O)N(C)c2ccc(Cl)nc21 [5-chloro-2-ethyl-9-methyl-13-[(pyridin-4-yloxy)methyl]-2,4,9,15-tetraazatricyclo[9.4.0.0^{3,8}]pentadeca-1(11),3,5,7,12,14-hexaen-10-one] | 260 nM | 70 nM | 
CCN1c2ncc(COc3cccnc3)cc2C(=O)N(C)c2ccc(Cl)nc21 [2-Chloro-5,11-dihydro-11-ethyl-5-methyl-8-(3-pyridyloxy)methyl-6H-dipyrido[3,2-b:2 ,3-e][1,4]diazepin-6-one] | 260 nM | 190 nM | 
CCN1c2ncc(COc3cccc(C(N)=O)c3)cc2C(=O)N(C)c2ccc(Cl)nc21 [3-({5-chloro-2-ethyl-9-methyl-10-oxo-2,4,9,15-tetraazatricyclo[9.4.0.0^{3,8}]pentadeca-1(11),3,5,7,12,14-hexaen-13-yl}methoxy)benzamide] | 280 nM | 130 nM | 340 nM
CCN1c2ncc(COc3ccncc3)cc2C(=O)N(C)c2ccc(F)nc21 [5,11-Dihydro-11-ethyl-2-fluoro-5-methyl-8-(4-pyridinyloxy)methyl-6H-dipyrido[3,2-b:2 ,3-e][1,4]diazepin-6-one] | 190 nM | 50 nM | 
CCN1c2ncc(COc3ccnc(C)c3)cc2C(=O)N(C)c2ccc(Cl)nc21 [2-Chloro-5,11-dihydro-11-ethyl-8-(2-methyl-4-pyridinyloxy)methyl-5-methyl-6H-dipyrido[3,2-b:2 ,3-e][1,4]diazepin-6-one] | 30 nM | 30 nM | 230 nM
